Common to all, as to type: cell-based, human
The subject of data set [1] is PNET2 cells induced to express AD7c-NTP. Briefly: Crystal violet viability assay. The note with it: 3 mM IPTG-induced AD7c-NTP; relative to un-induced FCS-stimulated and IPTG-induced NGF or PDGF stimulated cultures. Here is the method:
(§1) To examine the effects of different growth factors on AD7c-NTP expression (and over-expression), the cells were serum-starved for 16 hours, after which IPTG (1-5 mM) was added to the medium. Four hours later, the cells were stimulated with insulin (50 nM), IGF-1 (5 ng/ml), NGF ([…]), or platelet-derived growth factor (PDGF; 5 ng/ml) for 24-72 hours. The cells were analyzed for morphological changes, viability, AD7c-NTP immunoreactivity, and expression of pro-apoptosis genes, survival genes, and phospho-tau.
Viability was measured by a standard crystal violet assay. Crystal violet dye labels only viable cells. The assays were performed with cells seeded into 96-well plates at a density of 2×10^4 cells/well. The absorbances were measured using a Spectracount plate reader (Packard, Meriden, Conn.). The crystal violet absorbances increased linearly with cell density between 10^4 and 5×10^5 cells/well.
Cells were serum-starved for 24 hours. However, since several hours of IPTG stimulation were required to induce AD7c-NTP gene expression or CAT activity, IPTG (3 mM) was added to the cultures after 16 hours of serum-starvation, i.e. 8 hours prior to growth factor stimulation. […]
Increased cell loss associated with insulin-stimulation and AD7c-NTP over-expression Cell viability was quantified using the microculture Crystal violet assay with cells seeded into 96-well plates. […]

Data set [2] shares this test system. Briefly: Cell morphology by phase contrast microscopy. As to conditions: IPTG-induced AD7c-NTP; insulin 50 nM, IGF-1 5 ng/ml, NGF 2.5 ng/ml, PDGF 5 ng/ml; 24-48 hours. As to the method:
as §1
Cells were serum-starved for 24 hours. However, since several hours of IPTG stimulation were required to induce AD7c-NTP gene expression or CAT activity, IPTG (3 mM) was added to the cultures after 16 hours of serum-starvation, i.e. 8 hours prior to growth factor stimulation. The cells were stimulated with insulin (50 nM), IGF-1 (5 ng/ml), NGF (2.5 ng/ml), or PDGF (5 ng/ml) and examined by phase contrast microscopy 24-48 hours later. PNET2 cells could be maintained in serum-free medium for 5 to 7 days with insulin, IGF-1, NGF, or PDGF as the only growth stimulus. In addition, each of these growth factors supports DNA synthesis and promotes modest outgrowth of multipolar neurites in PNET2 cells.

A further data set deals with p53. Briefly: p53 expression, Western blot / MICE assay. As to conditions: PNET2 cells induced to express AD7c-NTP, growth factor stimulated. The source says: (§2) Standard Western blot assays wew used to measure cellular levels of p53, Bcl-2, p21/Waf1, phospho-tau, tau, c-fos, NTP, and activated (phosphorylated) forms of Erk mitogen activated protein (MAP) kinase, amino-terminal c-jun-activated kinase (pJNK), and p38/HOG1. Immunoprecipitation followed by Western blot analysis was used to measure p85 subunit associated with IRS1. For Western blot analysis of p53 Bcl-2, phospho-tau, tau, c-fos, and NTP, the cells were lysed in ice cold radioimmunoprecipitation assay (RIPA) buffer supplemented with protease and phosphatase inhibitors. For the immunoprecipitation studies, Western blot analysis of phospho-Erk, pJNK, and p38, and the PI3 kinase assays, the cells were harvested in Triton lysis buffer supplemented with protease and phosphatase inhibitors. Protein concentrations were measured using the BCA assay (Pierce, Rockford, Ill.). Samples containing 60 μg of protein were fractionated by sodium dodecyl sulfate polyacrylamide gel electrophoresis (SDS-PAGE), then transferred to PVDF membranes, and analyzed by Western immunoblotting. Immunoreactivity was detected with horseradish peroxidase conjugated secondary IgG and PicoWest enhanced chemiluminescence reagents (Pierce Chemical Company, Rockford, Ill.). CAT activity was measured using known methods.
(§3) The MICE assay is known in the art (e.g., as described by de la Monte et al., 1999, Biotechniques 26:107301076). The assay is a rapid and sensitive method for quantifying immunoreactivity in 96-well micro-cultures and combines the advantages of the enzyme-linked immunosorbant assay with immunocytochemical staining to permit sensitive in situ quantification of protein expression with values normalized to cell density. […] Immunoreactivity was detected using horseradish peroxidase conjugated secondary antibody (Pierce, Rockford, Ill.) and the TMB soluble peroxidase substrate (Pierce, Rockford, Ill.). Absorbances were measured at 450 nm using a Spectracount plate reader. […]

For the next data set, the system named is Bcl-2. The data set is described as follows: Bcl-2 expression, Western blot / MICE assay. As to conditions: PNET2 cells induced to express AD7c-NTP, growth factor stimulated.
Text: as §2, §3

In the next data set the test system is p21/Waf1. The data set is described as follows: p21/Waf1 expression, Western blot / MICE assay. The note with it: PNET2 cells induced to express AD7c-NTP, growth factor stimulated.
Text: as §2, with “For the immunoprecipitation studies, Western blot analysis of phospho-Erk, pJNK, and p38, and the PI3 kinase assays, the cells were harvested in Triton lysis buffer supplemented with protease and phosphatase inhibitors.” left out
(§4) The MICE assay is known in the art (e.g., as described by de la Monte et al., 1999, Biotechniques 26:107301076). […] Immunoreactivity was detected using horseradish peroxidase conjugated secondary antibody (Pierce, Rockford, Ill.) and the TMB soluble peroxidase substrate (Pierce, Rockford, Ill.). […]

A further data set relates to phospho-tau. The data set is described as follows: phospho-tau expression, Western blot / MICE assay. The note with it: PNET2 cells induced to express AD7c-NTP; relative to PDGF-stimulated cultures.
Text: as §2, with “For the immunoprecipitation studies, Western blot analysis of phospho-Erk, pJNK, and p38, and the PI3 kinase assays, the cells were harvested in Triton lysis buffer supplemented with protease and phosphatase inhibitors.” left out
as §4

For data set [3], the system named is nitric oxide synthase-3 (NOS-3). The data set is described as follows: NOS-3 expression, Western blot. As to conditions: PNET2 cells induced to express AD7c-NTP; relative to PDGF-stimulated cultures.
Text: as §2, with “methods. […]” for “methods.”

The test system of another data set is p25. The data set is described as follows: p25 expression, Western blot / MICE assay. The note with it: PNET2 cells induced to express AD7c-NTP.
Text: as §2, with “For the immunoprecipitation studies, Western blot analysis of phospho-Erk, pJNK, and p38, and the PI3 kinase assays, the cells were harvested in Triton lysis buffer supplemented with protease and phosphatase inhibitors.” left out
as §4

A further data set relates to phospho-Erk MAPK. Briefly: Growth factor stimulated phospho-Erk MAPK, Western blot. The note with it: for phospho-Erk MAPK level, short-term stimulation: 0-30 minutes stimulation; for phospho-Erk MAPK level, 24 hours: 24 hours of AD7c-NTP induction and growth factor stimulation.
Text: as §2
(§5) The potential mechanisms by which the differential effects of insulin, IGF1 and PDGF might occur were explored by examining pathways, which mediate PNET2 neuronal apoptosis and neuritic sprouting. […] Western blot analysis was performed with cell lysates obtained from cultures stimulated with insulin, IGF1, or PDGF for 0-30 minutes or 24 hours with equivalent protein loading (60 μg/sample). The membranes were probed using antibodies to Erk, phospho-Erk, Jun, and phospho-JNK. […] In contrast, after 24 hours of AD7c-NTP gene induction and growth factor stimulation, high levels of phospho-Erk MAPK were detected in the IGF-1 and PDGF-stimulated cultures, but not in the serum-starved or insulin-stimulated cultures. […] In contrast, the levels of c-fos transcription factor were equally expressed after 24 hours IPTG induction of AD7c-NTP expression and either serum starvation or stimulation with insulin, IGF1 or PDGF.

In the next data set the test system is phospho-JNK. Briefly: Growth factor stimulated phospho-JNK, Western blot. The note with it: for phospho-JNK level, short-term stimulation: 5-30 min stimulation.
Text: as §2, §5

Data set [4] deals with IRS-1-associated PI3 kinase. Briefly: IRS-1-associated PI3 kinase activity. The note with it: 3 mM IPTG-induced cultures, 30 minutes of stimulation. As to the method: The cells were harvested in Triton lysis buffer supplemented with protease and phosphatase inhibitors. Total PI3K was immunoprecipitated from 500 μg protein in cell lysates using rabbit polyclonal antibodies to the p85 subunit of PI3K and Protein A sepharose. The immunoprecipitants were incubated for 5 minutes at room temperature with 10 μg of sonicated phosphatidylinositol in HEPES buffer (200 mM HEPES, 4 mM EGTA, 4 mM sodium phosphate, pH 7.0). Reactions were initiated by the addition of 5 μCi [α^32p] ATP, 15 mM MgCl2, 150 mM ATP, 1.5 mM Tris-HCl, pH 7.4, and 15 mM NaCl. […] Phosphorylated lipids were analyzed by thin layer chromatography using gel plates pre-coated with 1% oxalate (Merck, White House Station, N.J.). PI3K activity was measured with a phosphorimager.
PI3 kinase is an important mediator of neuronal survival. […] Since insulin and IGF-1 can activate PI3 kinase through the insulin-receptor substrate-1 (IRS-1) or through IRS-1-independent pathways, both IRS1-associated PI3 kinase and total PI3 kinase activities were measured. […] Levels of PI3 kinase activity were measured in anti-phospho-tyrosine (PY) immunoprecipitates. […] Similarly, PI3 kinase activity was readily detected in the PY immunoprecipitates prepared with cells stimulated with insulin or PDGF.

Data set [5] concerns PY-PI3 kinase (total PI3 kinase). The data set is described as follows: PI3 kinase activity in anti-phospho-tyrosine (PY) immunoprecipitates. Here is the method:
The cells were harvested in Triton lysis buffer supplemented with protease and phosphatase inhibitors. Total PI3K was immunoprecipitated from 500 μg protein in cell lysates using rabbit polyclonal antibodies to the p85 subunit of PI3K and Protein A sepharose. The immunoprecipitants were incubated for 5 minutes at room temperature with 10 μg of sonicated phosphatidylinositol in HEPES buffer (200 mM HEPES, 4 mM EGTA, 4 mM sodium phosphate, pH 7.0). Reactions were initiated by the addition of 5 μCi [α^32p] ATP, 15 mM MgCl2, 150 mM ATP, 1.5 mM Tris-HCl, pH 7.4, and 15 mM NaCl. After 10 minutes incubation at 30° C., the reactions were stopped by the addition of HCl to a final concentration of 1.2 N, followed by chloroform/methanol extraction. Phosphorylated lipids were analyzed by thin layer chromatography using gel plates pre-coated with 1% oxalate (Merck, White House Station, N.J.). PI3K activity was measured with a phosphorimager.
PI3 kinase is an important mediator of neuronal survival. The pro-survival effects of PI3K are mediated through activation of Akt (protein kinase B) and phosphorylation of Bad to render it inactivated. Inhibition of PI3 kinase activity is associated with PNET2 cell apoptosis. Therefore, experiments were carried out to determine if growth factor stimulated PI3 kinase activity was inhibited in insulin or IGF-1-stimulated cultures. Such inhibition has been observed following chronic ethanol exposure. Since insulin and IGF-1 can activate PI3 kinase through the insulin-receptor substrate-1 (IRS-1) or through IRS-1-independent pathways, both IRS1-associated PI3 kinase and total PI3 kinase activities were measured. These studies were conducted using insulin or PDGF stimulated cultures in which AD7c-NTP gene expression was induced by 3 mM IPTG stimulation. […] Levels of PI3 kinase activity were measured in anti-phospho-tyrosine (PY) immunoprecipitates. […] Similarly, PI3 kinase activity was readily detected in the PY immunoprecipitates prepared with cells stimulated with insulin or PDGF.

“Also recorded” adds a separate entry of the source.

Take “IGF-1: Recombinant human IGF1 purchased from Sigma”: in data set [1], the “cell density (crystal violet)” value is given as “significantly reduced cell densities”. For the same substance, the cell morphology entry in [2] was “two populations of cells”. The p53 level entry in the data set on p53 was “intermediate levels; also recorded: significantly increased levels”. The Bcl-2 level result in the data set with Bcl-2 is “intermediate levels; also recorded: reduced levels”. Moreover, the p21/Waf1 level result with p21/Waf1 was “significantly increased levels”. Further, the phospho-tau level result in the data set on phospho-tau was “increased levels”. Moreover, the NOS-3 level entry in [3] is given as “increased levels”. Also, the p25 level result in the data set on p25 is “significantly increased levels”. Moreover, in the data set with phospho-Erk MAPK, the “phospho-Erk MAPK level, short-term stimulation” value is “increased levels” and the “phospho-Erk MAPK level, 24 hours” value was “high levels”. For the same substance, in the data set with phospho-JNK, the “phospho-JNK level, short-term stimulation” value is recorded as “much lower levels” and the “phospho-JNK level, 24 hour time point” value is recorded as “no detectable phospho-JNK expression”.
In the case of “NGF: Recombinant human NGF purchased from Sigma”, the cell morphology entry in [2] is “extensive neuritic growth with multipolar fine interconnecting processes and minimal evidence of on-going cell death”.
With PDGF, the cell morphology entry in [2] is “extensive neuritic growth with multipolar fine interconnecting processes and minimal evidence of on-going cell death”. In the data set with p53, the p53 level result was “no detectable p53”. Also, the Bcl-2 level entry with Bcl-2 is recorded as “high levels of Bcl-2”. In addition, in the data set on phospho-Erk MAPK, the “phospho-Erk MAPK level, short-term stimulation” value was “minimal effect” and the “phospho-Erk MAPK level, 24 hours” value is reported as “high levels”. In the data set on phospho-JNK, the “phospho-JNK level, short-term stimulation” value is reported as “much lower levels” and the “phospho-JNK level, 24 hour time point” value is on record as “no detectable phospho-JNK expression”. Further, the “IRS-1-associated PI3 kinase activity” value in data set [4] was “virtually undetectable”. For the same substance, the “PY-PI3 kinase activity, short-term” value in data set [5] (5-30 minutes, PDGF versus insulin-stimulated cultures) is on record as “consistently lower”. For the same substance, in data set [5] (24 or 48 hours of stimulation), the “PY-PI3 kinase activity, 24 or 48 hours” value was “similar”.

For the origin of these results see US7319094B2, “Increased and sustained in vivo gene expression using a nucleic acid, histone and amphipathic compound composition” (Rhode Island Hospital, priority 2001, dated 2008).
